The supplement of paper PMC11208160

Assay: recombinant UMI read abundance after kanamycin selection (control-corrected) (log10(CPM+1)); higher = more efficient recombination; extreme values may be limits of the assay; sequences stand for … in AGTGCAGAGAAAATCGGCCAGTTTTCTCTGCCTGCAGTCCGCATGCCGTGGGACCCCTTGGGTTCTAACCTGTTGCCTAGATTTATGCAGCGGACTGCCTTTCTCCCAAAGTGATAAACCGG…AGGTTGGTTTCACT; site = the 11-nt donor
In short: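 After plating on IPTG (0.07 mM) plus kanamycin, or unselected, in two replicates, recombinant UMIs were PCR-amplified across the donor–target junction and sequenced. The cells were Escherichia coli co-electroporated with a UMI-tagged donor and donor-binding-loop pair library and a target plasmid with a fixed target and T7-inducible IS621 bridge recombinase. Values are log10(CPM+1), with CPM averaged over replicates and scaled by control-derived factors.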
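Further: IS621 bridge recombinase in Escherichia coli cells against a fixed T5 target plasmid.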

Sequence | recombinant UMI read abundance (log10)
TGTTCCCCATGGACCGGTTTTCCCGGTAATCCGTATTTGCA (site TGTTCCCCTTG) | 0.256
TGTTCCCCATGGACCGGTTTTCCCGGTAATCCGTATTTGCA (site TGTTCCCCTTT) | 0.0133
TGTTCCCCATGGACCGGTTTTCCCGGTAATCCGTATTTGTA (site AGTTCCCCTTA) | 0.355
TGTTCCCCATGGACCGGTTTTCCCGGTAATCCGTATTTGTA (site CGTTCCCCTTA) | 0.193
TGTTCCCCATGGACCGGTTTTCCCGGTAATCCGTATTTGTA (site GGTTCCCCTTA) | 0.00981
TGTTCCCCATGGACCGGTTTTCCCGGTAATCCGTATTTGTA (site TATTCCCCTTA) | 0.0123
TGTTCCCCATGGACCGGTTTTCCCGGTAATCCGTATTTGTA (site TCTTCCCCTTA) | 0.0139
TGTTCCCCATGGACCGGTTTTCCCGGTAATCCGTATTTGTA (site TGATCCCCTTA) | 0.0165
TGTTCCCCATGGACCGGTTTTCCCGGTAATCCGTATTTGTA (site TGCTCCCCTTA) | 0.377
TGTTCCCCATGGACCGGTTTTCCCGGTAATCCGTATTTGTA (site TGGTCCCCTTA) | 0
TGTTCCCCATGGACCGGTTTTCCCGGTAATCCGTATTTGTA (site TGTACCCCTTA) | 0.0227
TGTTCCCCATGGACCGGTTTTCCCGGTAATCCGTATTTGTA (site TGTCCCCCTTA) | 0.136
TGTTCCCCATGGACCGGTTTTCCCGGTAATCCGTATTTGTA (site TGTGCCCCTTA) | 0.013
TGTTCCCCATGGACCGGTTTTCCCGGTAATCCGTATTTGTA (site TGTTACCCTTA) | 0.177
TGTTCCCCATGGACCGGTTTTCCCGGTAATCCGTATTTGTA (site TGTTCACCTTA) | 0.00592
TGTTCCCCATGGACCGGTTTTCCCGGTAATCCGTATTTGTA (site TGTTCCACTTA) | 0.0238
TGTTCCCCATGGACCGGTTTTCCCGGTAATCCGTATTTGTA (site TGTTCCCCTAA) | 0.0105
TGTTCCCCATGGACCGGTTTTCCCGGTAATCCGTATTTGTA (site TGTTCCCCTCA) | 0.0333
TGTTCCCCATGGACCGGTTTTCCCGGTAATCCGTATTTGTA (site TGTTCCCCTGA) | 0
TGTTCCCCATGGACCGGTTTTCCCGGTAATCCGTATTTGTA (site TGTTCCCCTTA) | 0.625
TGTTCCCCATGGACCGGTTTTCCCGGTAATCCGTATTTGTA (site TGTTCCCCTTC) | 0.00924
TGTTCCCCATGGACCGGTTTTCCCGGTAATCCGTATTTGTA (site TGTTCCCCTTG) | 0.00318
TGTTCCCCATGGACCGGTTTTCCCGGTAATCCGTATTTGTA (site TGTTCCCCTTT) | 0.0256
TGTTCCCCATGGACCGGTTTTCCCGGTAATCCGTATTTGTA (site TGTTCCGCTTA) | 0.0259
TGTTCCCCATGGACCGGTTTTCCCGGTAATCCGTATTTGTA (site TGTTCCTCTTA) | 0.105

Sequence | recombinant UMI read abundance (log10)
TGTTCCCCATGGACCGGTTTTCCCGGTAATCCGTATTTGTA (site TGTTCGCCTTA) | 0.0106
TGTTCCCCATGGACCGGTTTTCCCGGTAATCCGTATTTGTA (site TGTTCTCCTTA) | 0.0643
TGTTCCCCATGGACCGGTTTTCCCGGTAATCCGTATTTGTA (site TGTTGCCCTTA) | 0.0058
TGTTCCCCATGGACCGGTTTTCCCGGTAATCCGTATTTGTA (site TGTTTCCCTTA) | 0.381
TGTTCCCCATGGACCGGTTTTCCCGGTAATCCGTATTTGTA (site TTTTCCCCTTA) | 0.0217
TGTTGCCCATGGACCGGTTTTCCCGGTAATCCGTATTTGTA (site TGTTACCCTTA) | 0.032
TGTTGCCCATGGACCGGTTTTCCCGGTAATCCGTATTTGTA (site TGTTCCCCTTA) | 0.324
TGTTGCCCATGGACCGGTTTTCCCGGTAATCCGTATTTGTA (site TGTTGCCCTTA) | 0.0196
TGTTGCCCATGGACCGGTTTTCCCGGTAATCCGTATTTGTA (site TGTTTCCCTTA) | 0.0108
TGTTGTTCATGGACCGGTTTTCCCGGTAATCCGTATTTGAA (site TGTTGTTCTTT) | 0.472
TTAACTGCATGGACCGGTTTTCCCGGTAATCCGTATTTGTG (site TTAACTGCTCA) | 0.697
TTAACTGCATGGACCGGTTTTCCCGGTAATCCGTATTTGTG (site TTACCTGCTCA) | 0.00413
TTAACTGCATGGACCGGTTTTCCCGGTAATCCGTATTTGTG (site TTAGCTGCTCA) | 0.00337
TTAACTGCATGGACCGGTTTTCCCGGTAATCCGTATTTGTG (site TTATCTGCTCA) | 0.0133
TTAAGCCCATGGACCGGTTTTCCCGGTAATCCGTATTTGGT (site TTAAGCCCTAC) | 0.174
TTAATTCCATGGACCGGTTTTCCCGGTAATCCGTATTTGTT (site TTAATTCCTAA) | 0.0021
TTACAATCATGGACCGGTTTTCCCGGTAATCCGTATTTGGG (site TTACAATCTCC) | 0
TTACATTCATGGACCGGTTTTCCCGGTAATCCGTATTTGAC (site TTACATTCTGT) | 1.68
TTACCATCATGGACCGGTTTTCCCGGTAATCCGTATTTGAC (site TTACCATCTGT) | 2.16
TTACCTTCATGGACCGGTTTTCCCGGTAATCCGTATTTGTC (site TTACCTTCTGA) | 0.519
TTAGAAACATGGACCGGTTTTCCCGGTAATCCGTATTTGAT (site TTAGAAACTAT) | 2.51
TTAGAGGCATGGACCGGTTTTCCCGGTAATCCGTATTTGGA (site TTAGAGGCTTC) | 0.701
TTAGATGCATGGACCGGTTTTCCCGGTAATCCGTATTTGTG (site TTAGATGCTCA) | 1.52
TTAGATGCATGGACCGGTTTTCCCGGTAATCCGTATTTGTG (site TTAGCTGCTCA) | 0.0227
TTAGATGCATGGACCGGTTTTCCCGGTAATCCGTATTTGTG (site TTAGGTGCTCA) | 0.00706

Sequence | recombinant UMI read abundance (log10)
TTAGATGCATGGACCGGTTTTCCCGGTAATCCGTATTTGTG (site TTAGTTGCTCA) | 0.00838
TTAGCCGCATGGACCGGTTTTCCCGGTAATCCGTATTTGTG (site TTAGCAGCTCA) | 0.108
TTAGCCGCATGGACCGGTTTTCCCGGTAATCCGTATTTGTG (site TTAGCCGCTCA) | 0.564
TTAGCCGCATGGACCGGTTTTCCCGGTAATCCGTATTTGTG (site TTAGCGGCTCA) | 0.0427
TTAGCCGCATGGACCGGTTTTCCCGGTAATCCGTATTTGTG (site TTAGCTGCTCA) | 0.00693
TTAGCTCCATGGACCGGTTTTCCCGGTAATCCGTATTTGTG (site TTAGCTACTCA) | 0.00349
TTAGCTCCATGGACCGGTTTTCCCGGTAATCCGTATTTGTG (site TTAGCTCCTCA) | 0.0123
TTAGCTCCATGGACCGGTTTTCCCGGTAATCCGTATTTGTG (site TTAGCTGCTCA) | 0.00795
TTAGCTCCATGGACCGGTTTTCCCGGTAATCCGTATTTGTG (site TTAGCTTCTCA) | 0.0128
TTAGCTGCATGGACCGGTTTTCCCGGTAATCCGTATTTGAG (site TTAGCTGCTCA) | 0.025
TTAGCTGCATGGACCGGTTTTCCCGGTAATCCGTATTTGAG (site TTAGCTGCTCC) | 0.0699
TTAGCTGCATGGACCGGTTTTCCCGGTAATCCGTATTTGAG (site TTAGCTGCTCG) | 0.0144
TTAGCTGCATGGACCGGTTTTCCCGGTAATCCGTATTTGAG (site TTAGCTGCTCT) | 0.839
TTAGCTGCATGGACCGGTTTTCCCGGTAATCCGTATTTGCG (site TTAGCTGCTCA) | 0.00643
TTAGCTGCATGGACCGGTTTTCCCGGTAATCCGTATTTGCG (site TTAGCTGCTCC) | 0.0194
TTAGCTGCATGGACCGGTTTTCCCGGTAATCCGTATTTGCG (site TTAGCTGCTCG) | 1.41
TTAGCTGCATGGACCGGTTTTCCCGGTAATCCGTATTTGCG (site TTAGCTGCTCT) | 0.00813
TTAGCTGCATGGACCGGTTTTCCCGGTAATCCGTATTTGTA (site TTAGCTGCTAA) | 0.0184
TTAGCTGCATGGACCGGTTTTCCCGGTAATCCGTATTTGTA (site TTAGCTGCTCA) | 0.026
TTAGCTGCATGGACCGGTTTTCCCGGTAATCCGTATTTGTA (site TTAGCTGCTGA) | 0
TTAGCTGCATGGACCGGTTTTCCCGGTAATCCGTATTTGTA (site TTAGCTGCTTA) | 1.35
TTAGCTTCATGGACCGGTTTTCCCGGTAATCCGTATTTGTG (site TTAGCTACTCA) | 0.0149
TTAGCTTCATGGACCGGTTTTCCCGGTAATCCGTATTTGTG (site TTAGCTCCTCA) | 0.012
TTAGCTTCATGGACCGGTTTTCCCGGTAATCCGTATTTGTG (site TTAGCTGCTCA) | 0.00609
TTAGCTTCATGGACCGGTTTTCCCGGTAATCCGTATTTGTG (site TTAGCTTCTCA) | 0.478
